# Key:
# [1] = target: Casein kinase I isoform delta (Homo sapiens) (UniProt P48730); settings: Compound concentration 1000.0 nM
# [2] = target: Calcium/calmodulin-dependent protein kinase type 1D (Homo sapiens) (UniProt Q8IU85); settings: Compound concentration 1000.0 nM
# [3] = target: Mitogen-activated protein kinase kinase kinase 7 (Homo sapiens) (UniProt O43318); settings: Compound concentration 1000.0 nM
# [4] = target: G protein-coupled receptor kinase 4 (Homo sapiens) (UniProt P32298); settings: Compound concentration 1000.0 nM
# [5] = target: Serine/threonine-protein kinase VRK2 (Homo sapiens) (UniProt Q86Y07); settings: Compound concentration 1000.0 nM
# [6] = target: Serine/threonine-protein kinase 26 (Homo sapiens) (UniProt Q9P289); settings: Compound concentration 1000.0 nM
# Serine/threonine-protein kinase 26 (Homo sapiens), sequence (Q9P289 2-416 limits assumed): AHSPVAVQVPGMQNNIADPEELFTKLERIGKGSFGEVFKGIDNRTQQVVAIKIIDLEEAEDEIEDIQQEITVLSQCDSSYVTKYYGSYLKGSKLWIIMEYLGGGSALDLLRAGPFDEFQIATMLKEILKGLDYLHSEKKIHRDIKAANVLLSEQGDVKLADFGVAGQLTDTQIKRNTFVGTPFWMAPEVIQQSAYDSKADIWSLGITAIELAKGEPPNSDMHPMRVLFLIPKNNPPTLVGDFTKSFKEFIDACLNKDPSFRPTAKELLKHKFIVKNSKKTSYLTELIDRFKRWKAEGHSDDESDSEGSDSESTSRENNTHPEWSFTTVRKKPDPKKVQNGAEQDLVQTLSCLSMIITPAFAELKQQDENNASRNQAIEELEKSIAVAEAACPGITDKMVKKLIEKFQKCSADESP
# [7] = tested on: Mast/stem cell growth factor receptor Kit (Homo sapiens), P10721 [V559D,T670I]; settings: Compound concentration 1000.0 nM
# [8] = target: Calcium-dependent protein kinase 1 (Plasmodium falciparum) (UniProt P62344); settings: Compound concentration 1000.0 nM
# [9] = target: Cyclin-dependent kinase 8 (Homo sapiens) (UniProt P49336); settings: Compound concentration 1000.0 nM
# Cyclin-dependent kinase 8 (Homo sapiens), sequence (P49336 whole entry): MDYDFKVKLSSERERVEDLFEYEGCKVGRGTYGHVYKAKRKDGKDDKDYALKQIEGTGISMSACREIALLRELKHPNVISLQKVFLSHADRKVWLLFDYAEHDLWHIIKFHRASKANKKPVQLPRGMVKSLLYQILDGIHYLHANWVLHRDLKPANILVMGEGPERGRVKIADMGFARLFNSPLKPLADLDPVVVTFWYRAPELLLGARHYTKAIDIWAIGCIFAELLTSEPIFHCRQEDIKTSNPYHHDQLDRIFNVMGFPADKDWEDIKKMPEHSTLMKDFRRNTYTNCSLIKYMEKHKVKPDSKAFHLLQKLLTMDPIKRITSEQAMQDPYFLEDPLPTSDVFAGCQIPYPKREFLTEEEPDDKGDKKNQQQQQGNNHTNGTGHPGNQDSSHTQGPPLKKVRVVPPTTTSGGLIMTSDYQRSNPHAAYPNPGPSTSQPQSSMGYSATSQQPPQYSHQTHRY
# [10] = target: Macrophage colony-stimulating factor 1 receptor (Homo sapiens) (UniProt P07333); settings: Compound concentration 1000.0 nM
# [11] = target: Serine/threonine-protein kinase WNK2 (Homo sapiens) (UniProt Q9Y3S1); settings: Compound concentration 1000.0 nM
# [12] = target: Dual specificity protein kinase CLK2 (Homo sapiens) (UniProt P49760); settings: Compound concentration 1000.0 nM
# [13] = target: Mitogen-activated protein kinase kinase kinase 3 (Homo sapiens) (UniProt Q99759); settings: Compound concentration 1000.0 nM
# Mitogen-activated protein kinase kinase kinase 3 (Homo sapiens), sequence (Q99759 whole entry): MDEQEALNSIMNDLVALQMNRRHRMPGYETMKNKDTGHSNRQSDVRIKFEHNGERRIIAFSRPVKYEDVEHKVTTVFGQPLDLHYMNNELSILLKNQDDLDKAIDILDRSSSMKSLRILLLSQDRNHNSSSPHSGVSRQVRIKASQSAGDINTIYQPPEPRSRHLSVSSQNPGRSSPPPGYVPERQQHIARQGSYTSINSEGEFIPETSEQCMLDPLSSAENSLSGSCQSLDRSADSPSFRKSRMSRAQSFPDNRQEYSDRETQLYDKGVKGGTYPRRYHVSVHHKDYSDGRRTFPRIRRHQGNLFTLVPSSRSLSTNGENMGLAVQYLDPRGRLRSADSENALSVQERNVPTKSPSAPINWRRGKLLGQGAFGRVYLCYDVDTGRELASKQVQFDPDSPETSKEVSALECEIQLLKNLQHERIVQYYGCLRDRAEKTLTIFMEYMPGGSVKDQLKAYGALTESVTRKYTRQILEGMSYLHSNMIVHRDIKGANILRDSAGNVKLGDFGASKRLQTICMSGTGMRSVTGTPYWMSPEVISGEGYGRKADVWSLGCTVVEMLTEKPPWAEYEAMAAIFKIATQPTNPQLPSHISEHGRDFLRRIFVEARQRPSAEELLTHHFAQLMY
# [14] = target: Cyclin-dependent kinase 19 (Homo sapiens) (UniProt Q9BWU1); settings: Compound concentration 1000.0 nM
# [15] = target: Cyclin-dependent kinase 2 (Homo sapiens) (UniProt P24941); settings: Compound concentration 1000.0 nM
# [16] = tested on: Mast/stem cell growth factor receptor Kit (Homo sapiens), P10721 [L576P]; settings: Compound concentration 1000.0 nM
# [17] = target: Receptor-type tyrosine-protein kinase FLT3 (Homo sapiens) (UniProt P36888); settings: Compound concentration 1000.0 nM
# [18] = target: Serine/threonine-protein kinase DCLK2 (Homo sapiens) (UniProt Q8N568); settings: Compound concentration 1000.0 nM
# [19] = target: Serine/threonine-protein kinase Sgk3 (Homo sapiens) (UniProt Q96BR1); settings: Compound concentration 1000.0 nM
# Serine/threonine-protein kinase Sgk3 (Homo sapiens), sequence (Q96BR1 whole entry): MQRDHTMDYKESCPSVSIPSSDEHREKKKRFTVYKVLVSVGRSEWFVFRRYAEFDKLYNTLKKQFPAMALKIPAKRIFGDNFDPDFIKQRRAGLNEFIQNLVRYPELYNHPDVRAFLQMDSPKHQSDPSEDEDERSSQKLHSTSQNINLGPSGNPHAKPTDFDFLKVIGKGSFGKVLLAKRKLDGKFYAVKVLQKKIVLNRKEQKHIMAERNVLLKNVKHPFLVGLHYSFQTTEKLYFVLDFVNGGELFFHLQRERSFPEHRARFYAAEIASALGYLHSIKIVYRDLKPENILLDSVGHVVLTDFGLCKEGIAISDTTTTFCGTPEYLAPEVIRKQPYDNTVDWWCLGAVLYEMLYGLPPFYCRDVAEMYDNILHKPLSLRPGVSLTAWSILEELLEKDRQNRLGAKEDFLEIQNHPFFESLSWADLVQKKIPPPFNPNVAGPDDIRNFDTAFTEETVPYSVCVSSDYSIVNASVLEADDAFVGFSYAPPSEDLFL
# [20] = target: Serine/threonine-protein kinase 35 (Homo sapiens) (UniProt Q8TDR2); settings: Compound concentration 1000.0 nM
# Serine/threonine-protein kinase 35 (Homo sapiens), sequence (Q8TDR2 whole entry): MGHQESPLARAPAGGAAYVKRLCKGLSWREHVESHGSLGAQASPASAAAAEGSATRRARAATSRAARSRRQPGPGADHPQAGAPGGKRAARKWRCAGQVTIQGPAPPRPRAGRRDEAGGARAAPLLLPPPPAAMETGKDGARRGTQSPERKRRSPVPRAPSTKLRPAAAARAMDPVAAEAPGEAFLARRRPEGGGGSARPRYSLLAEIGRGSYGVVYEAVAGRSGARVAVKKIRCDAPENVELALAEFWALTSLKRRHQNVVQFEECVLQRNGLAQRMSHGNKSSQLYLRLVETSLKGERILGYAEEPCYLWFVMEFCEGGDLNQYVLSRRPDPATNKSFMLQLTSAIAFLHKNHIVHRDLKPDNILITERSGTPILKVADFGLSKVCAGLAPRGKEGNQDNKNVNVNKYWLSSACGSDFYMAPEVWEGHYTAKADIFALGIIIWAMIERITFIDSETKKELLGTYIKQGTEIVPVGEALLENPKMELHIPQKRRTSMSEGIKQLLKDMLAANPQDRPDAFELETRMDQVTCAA
# [21] = target: Mitogen-activated protein kinase 12 (Homo sapiens) (UniProt P53778); settings: Compound concentration 1000.0 nM
# Mitogen-activated protein kinase 12 (Homo sapiens), sequence (P53778 whole entry): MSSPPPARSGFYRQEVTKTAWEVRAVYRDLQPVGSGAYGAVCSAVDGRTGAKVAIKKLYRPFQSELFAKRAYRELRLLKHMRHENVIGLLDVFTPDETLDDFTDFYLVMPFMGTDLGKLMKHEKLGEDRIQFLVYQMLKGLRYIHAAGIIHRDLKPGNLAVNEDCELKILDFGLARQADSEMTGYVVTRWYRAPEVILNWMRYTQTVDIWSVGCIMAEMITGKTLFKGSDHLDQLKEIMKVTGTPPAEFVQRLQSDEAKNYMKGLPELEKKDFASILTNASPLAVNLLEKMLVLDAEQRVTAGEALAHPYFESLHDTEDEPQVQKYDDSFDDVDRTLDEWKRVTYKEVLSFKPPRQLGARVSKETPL
# [22] = tested on: Epidermal growth factor receptor (Homo sapiens), P00533 [UNDEFINED MUTATION]; settings: Compound concentration 1000.0 nM
# [23] = target: Mitogen-activated protein kinase kinase kinase 12 (Homo sapiens) (UniProt Q12852); settings: Compound concentration 1000.0 nM
# [24] = target: Wee1-like protein kinase 2 (Homo sapiens) (UniProt P0C1S8); settings: Compound concentration 1000.0 nM
# [25] = target: Phosphatidylinositol 4-phosphate 5-kinase type-1 alpha (Homo sapiens) (UniProt Q99755); settings: Compound concentration 1000.0 nM
# [26] = tested on: Tyrosine-protein kinase ABL1 (Homo sapiens), P00519 [F317I]; settings: Compound concentration 1000.0 nM
# [27] = target: ALK tyrosine kinase receptor (Homo sapiens) (UniProt Q9UM73); settings: Compound concentration 1000.0 nM
# ALK tyrosine kinase receptor (Homo sapiens), sequence (Q9UM73 19-1620 limits assumed): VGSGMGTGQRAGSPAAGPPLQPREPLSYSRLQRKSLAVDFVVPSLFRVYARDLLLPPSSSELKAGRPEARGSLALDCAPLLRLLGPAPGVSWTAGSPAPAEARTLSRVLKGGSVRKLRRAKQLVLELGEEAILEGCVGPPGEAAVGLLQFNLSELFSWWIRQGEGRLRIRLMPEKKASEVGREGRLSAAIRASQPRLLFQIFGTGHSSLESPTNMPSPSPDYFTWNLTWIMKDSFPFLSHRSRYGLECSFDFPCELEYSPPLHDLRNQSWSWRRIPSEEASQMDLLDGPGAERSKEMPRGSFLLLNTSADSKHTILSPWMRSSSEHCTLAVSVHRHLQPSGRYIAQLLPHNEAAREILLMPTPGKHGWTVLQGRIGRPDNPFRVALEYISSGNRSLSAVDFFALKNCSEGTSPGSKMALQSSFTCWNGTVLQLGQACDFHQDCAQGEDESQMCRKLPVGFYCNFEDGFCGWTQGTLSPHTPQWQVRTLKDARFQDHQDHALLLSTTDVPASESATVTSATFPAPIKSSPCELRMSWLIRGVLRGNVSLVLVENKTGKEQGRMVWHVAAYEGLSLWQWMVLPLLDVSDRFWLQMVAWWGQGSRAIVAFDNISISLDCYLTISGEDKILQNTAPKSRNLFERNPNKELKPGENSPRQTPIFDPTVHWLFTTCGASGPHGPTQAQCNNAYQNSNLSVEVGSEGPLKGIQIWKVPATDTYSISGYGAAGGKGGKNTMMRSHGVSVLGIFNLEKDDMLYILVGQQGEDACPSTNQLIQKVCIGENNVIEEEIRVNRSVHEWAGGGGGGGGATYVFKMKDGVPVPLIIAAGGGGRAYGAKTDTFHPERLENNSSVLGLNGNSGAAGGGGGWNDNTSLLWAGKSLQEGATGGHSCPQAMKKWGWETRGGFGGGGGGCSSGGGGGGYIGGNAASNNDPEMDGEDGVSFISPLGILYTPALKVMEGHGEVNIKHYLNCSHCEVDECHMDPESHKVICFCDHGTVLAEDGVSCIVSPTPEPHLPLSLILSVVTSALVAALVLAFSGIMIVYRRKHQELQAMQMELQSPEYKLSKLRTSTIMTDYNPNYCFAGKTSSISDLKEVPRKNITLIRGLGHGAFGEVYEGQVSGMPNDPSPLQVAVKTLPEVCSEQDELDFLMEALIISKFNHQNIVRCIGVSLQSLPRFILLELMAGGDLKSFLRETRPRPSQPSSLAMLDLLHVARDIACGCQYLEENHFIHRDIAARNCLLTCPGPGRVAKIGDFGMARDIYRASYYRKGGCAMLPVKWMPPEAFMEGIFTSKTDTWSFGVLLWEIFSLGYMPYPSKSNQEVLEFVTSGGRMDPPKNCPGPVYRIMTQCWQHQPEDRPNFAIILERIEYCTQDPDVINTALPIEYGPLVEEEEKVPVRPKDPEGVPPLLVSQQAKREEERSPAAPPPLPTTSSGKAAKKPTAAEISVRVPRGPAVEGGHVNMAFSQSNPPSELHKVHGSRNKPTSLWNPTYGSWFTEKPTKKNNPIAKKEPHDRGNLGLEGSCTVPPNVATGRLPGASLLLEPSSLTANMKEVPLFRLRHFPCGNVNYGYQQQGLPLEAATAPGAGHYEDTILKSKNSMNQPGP
# [28] = target: Eukaryotic translation initiation factor 2-alpha kinase 1 (Homo sapiens) (UniProt Q9BQI3); settings: Compound concentration 1000.0 nM
# [29] = target: Myosin light chain kinase, smooth muscle (Homo sapiens) (UniProt Q15746); settings: Compound concentration 1000.0 nM
# [30] = target: Tyrosine-protein kinase Fes/Fps (Homo sapiens) (UniProt P07332); settings: Compound concentration 1000.0 nM
# [31] = target: Tyrosine-protein kinase BTK (Homo sapiens) (UniProt Q06187); settings: Compound concentration 1000.0 nM
# [32] = target: Cyclin-dependent kinase 2 homolog (Plasmodium falciparum (isolate 3D7)) (UniProt P61075); settings: Compound concentration 1000.0 nM
# [33] = target: Tyrosine-protein kinase Lck (Homo sapiens) (UniProt P06239); settings: Compound concentration 1000.0 nM
# [34] = target: Sodium/hydrogen exchanger 3 (Homo sapiens, UniProt P48764); assay: pHi change assay with SLC9A3
# [35] = target: Receptor tyrosine-protein kinase erbB-2 (Homo sapiens) (UniProt P04626); settings: Compound concentration 1000.0 nM
# [36] = target: Tyrosine-protein kinase Fgr (Homo sapiens) (UniProt P09769); settings: Compound concentration 1000.0 nM
# Tyrosine-protein kinase Fgr (Homo sapiens), sequence (P09769 2-529 limits assumed): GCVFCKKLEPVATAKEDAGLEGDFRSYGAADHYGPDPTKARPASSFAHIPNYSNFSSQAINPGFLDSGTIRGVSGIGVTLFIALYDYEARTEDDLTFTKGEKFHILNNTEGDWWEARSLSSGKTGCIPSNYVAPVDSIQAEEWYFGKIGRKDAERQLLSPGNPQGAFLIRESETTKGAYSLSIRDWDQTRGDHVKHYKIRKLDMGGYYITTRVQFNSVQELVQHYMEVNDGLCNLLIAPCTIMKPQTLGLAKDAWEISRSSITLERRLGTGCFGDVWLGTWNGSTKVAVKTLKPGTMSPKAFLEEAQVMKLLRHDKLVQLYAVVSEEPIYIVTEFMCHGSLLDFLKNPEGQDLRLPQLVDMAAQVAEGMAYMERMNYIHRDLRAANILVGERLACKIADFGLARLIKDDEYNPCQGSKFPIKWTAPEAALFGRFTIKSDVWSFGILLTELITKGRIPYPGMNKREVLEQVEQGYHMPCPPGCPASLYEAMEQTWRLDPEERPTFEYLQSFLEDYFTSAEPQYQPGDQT
# [37] = target: Mu-type opioid receptor (Homo sapiens) (UniProt P35372); settings: Compound concentration 10.0 uM
# [38] = tested on: Phosphatidylinositol 4,5-bisphosphate 3-kinase catalytic subunit alpha isoform (Homo sapiens), P42336 [E545A]; settings: Compound concentration 1000.0 nM
# [39] = target: Mitogen-activated protein kinase kinase kinase 20 (Homo sapiens) (UniProt Q9NYL2); settings: Compound concentration 1000.0 nM
# [40] = tested on: Phosphatidylinositol 4,5-bisphosphate 3-kinase catalytic subunit alpha isoform (Homo sapiens), P42336 [H1047Y]; settings: Compound concentration 1000.0 nM
# [41] = target: Phosphatidylinositol 5-phosphate 4-kinase type-2 gamma (Homo sapiens) (UniProt Q8TBX8); settings: Compound concentration 1000.0 nM
# [42] = target: Tyrosine-protein kinase ABL2 (Homo sapiens) (UniProt P42684); settings: Compound concentration 1000.0 nM
# [43] = target: Alpha-2B adrenergic receptor (Homo sapiens) (UniProt P18089); settings: Compound concentration 10.0 uM
# [44] = target: Serine/threonine-protein kinase N2 (Homo sapiens) (UniProt Q16513); settings: Compound concentration 1000.0 nM
# [45] = target: Calcium/calmodulin-dependent protein kinase kinase 2 (Homo sapiens) (UniProt Q96RR4); settings: Compound concentration 1000.0 nM
structure (smiles),measurement,setting,value
CC(=O)N1CCC(c2ccc(C(=O)NC3=NCCN3)cc2C(F)(F)F)CC1 [BI 0054],residual activity,[1],100%
same,residual activity,[2],100%
same,residual activity,[3],100%
same,residual activity,[4],100%
same,residual activity,[5],100%
same,residual activity,[6],89%
same,residual activity,[7],100%
same,residual activity,[8],90%
same,residual activity,[9],100%
same,residual activity,[10],94%
same,residual activity,[11],100%
same,residual activity,[12],91%
same,residual activity,[13],100%
same,residual activity,[14],100%
same,residual activity,[15],100%
same,residual activity,[16],95%
same,residual activity,[17],100%
same,residual activity,[18],88%
same,residual activity,[19],82%
same,residual activity,[20],100%
same,residual activity,[21],55%
same,residual activity,[22],100%
same,residual activity,[23],100%
same,residual activity,[24],100%
same,residual activity,[25],100%
same,residual activity,[26],94%
same,residual activity,[27],89%
same,residual activity,[28],83%
same,residual activity,[29],90%
same,residual activity,[30],100%
same,residual activity,[31],97%
same,residual activity,[32],100%
same,residual activity,[33],100%
same,IC50,[34],> 10 µM (not active)
same,residual activity,[35],100%
same,residual activity,[36],100%
same,inhibition,[37],-2.53%
same,residual activity,[38],100%
same,residual activity,[39],88%
same,residual activity,[40],100%
same,residual activity,[41],94%
same,residual activity,[42],100%
same,inhibition,[43],1.01%
same,residual activity,[44],100%
same,residual activity,[45],100%
CC(=O)N1CCC(c2ccc(C(=O)NC(=N)N)cc2C(F)(F)F)CC1 [BI 9627],residual activity,[1],100%
same,residual activity,[2],95%
same,residual activity,[3],100%
same,residual activity,[4],100%
same,residual activity,[5],100%
same,residual activity,[6],97%
same,residual activity,[7],100%
same,residual activity,[8],87%
same,residual activity,[9],100%
same,residual activity,[10],85%
same,residual activity,[11],98%
same,residual activity,[12],100%
same,residual activity,[13],90%
same,residual activity,[14],100%
same,residual activity,[15],100%
same,residual activity,[16],92%
same,residual activity,[17],100%
same,residual activity,[18],93%
same,residual activity,[19],100%
same,residual activity,[20],100%
same,residual activity,[21],77%
same,residual activity,[22],100%
same,residual activity,[23],100%
same,residual activity,[24],100%
same,residual activity,[25],94%
same,residual activity,[26],96%
same,residual activity,[27],93%
same,residual activity,[28],100%
same,residual activity,[29],90%
same,residual activity,[30],96%
same,residual activity,[31],100%
same,residual activity,[32],100%
same,residual activity,[33],100%
same,IC50,[34],> 16 µM (not active)
same,residual activity,[35],92%
same,residual activity,[36],91%
same,inhibition,[37],8.98%
same,residual activity,[38],100%
same,residual activity,[39],100%
same,residual activity,[40],100%
same,residual activity,[41],100%
same,residual activity,[42],100%
same,inhibition,[43],6.29%
same,residual activity,[44],100%
same,residual activity,[45],100%

# From ChEMBL document CHEMBL4507279, “Data for DCP probe BI-9627” (2021)
